Tests used:
Type in all cases: functional
Aspergillus niger = assay: Antimicrobial activity against Aspergillus niger ATCC 9142 after 24 hr by broth dilution method; conditions: ATCC 9142, 24 h
Pseudomonas aeruginosa = assay: Antimicrobial activity against Pseudomonas aeruginosa ATCC 10145 after 24 hr by broth dilution method; conditions: ATCC 10145, 24 h
Aspergillus flavus = assay: Antimicrobial activity against Aspergillus flavus ATCC 15517 after 24 hr by broth dilution method; conditions: ATCC 15517, 24 h
Bacillus cereus = assay: Antimicrobial activity against Bacillus cereus ATCC 11778 after 24 hr by broth dilution method; conditions: ATCC 11778, 24 h
Proteus mirabilis = assay: Antimicrobial activity against Proteus mirabilis ATCC 49565 after 24 hr by broth dilution method; conditions: ATCC 49565, 24 h
Staphylococcus hominis = assay: Antimicrobial activity against Staphylococcus hominis ATCC 27844 after 24 hr by broth dilution method; conditions: ATCC 27844, 24 h
Fusarium solani = assay: Antimicrobial activity against Fusarium solani ATCC 38136 after 24 hr by broth dilution method; conditions: ATCC 38136, 24 h
Aspergillus awamori = assay: Antimicrobial activity against Aspergillus awamori ATCC 22342 after 24 hr by broth dilution method; conditions: ATCC 22342, 24 h
Microsporum canis = assay: Antimicrobial activity against Arthroderma otae ATCC 11622 after 24 hr by broth dilution method; conditions: ATCC 11622, 24 h
Candida albicans = assay: Antimicrobial activity against Candida albicans ATCC 10231 after 24 hr by broth dilution method; conditions: ATCC 10231, 24 h
Micrococcus luteus = assay: Antimicrobial activity against Micrococcus luteus ATCC 4698 after 24 hr by broth dilution method; conditions: ATCC 4698, 24 h
Alternaria alternata = assay: Antimicrobial activity against Alternaria alternata ATCC 66868 after 24 hr by broth dilution method; conditions: ATCC 66868, 24 h
Trichoderma viride = assay: Antimicrobial activity against Hypocrea rufa ATCC 52440 after 24 hr by broth dilution method; conditions: ATCC 52440, 24 h
[1] = system: Staphylococcus epidermidis; assay: Antimicrobial activity against Staphylococcus epidermidis ATCC 12228 after 24 hr by broth dilution method; conditions: ATCC 12228, 24 h
Proteus vulgaris = assay: Antimicrobial activity against Proteus vulgaris ATCC 13315 after 24 hr by broth dilution method; conditions: ATCC 13315, 24 h
Bacillus pumilus = assay: Antimicrobial activity against Bacillus pumilus ATCC 14884 after 24 hr by broth dilution method; conditions: ATCC 14884, 24 h
Salmonella typhi = assay: Antimicrobial activity against Salmonella enterica subsp. enterica serovar Typhi ATCC 19430 after 24 hr by broth dilution method; conditions: ATCC 19430, 24 h
Bacillus spizizenii = assay: Antimicrobial activity against Bacillus subtilis subsp. spizizenii ATCC 6633 after 24 hr by broth dilution method; conditions: ATCC 6633, 24 h
Escherichia coli = assay: Antimicrobial activity against Escherichia coli ATCC 25922 after 24 hr by broth dilution method; conditions: ATCC 25922, 24 h
Staphylococcus aureus = assay: Antimicrobial activity against Staphylococcus aureus ATCC 25923 after 24 hr by broth dilution method; conditions: ATCC 25923, 24 h
Rhizoctonia solani = assay: Antimicrobial activity against Rhizoctonia solani ATCC 76131 after 24 hr by broth dilution method; conditions: ATCC 76131, 24 h
Aspergillus fumigatus = assay: Antimicrobial activity against Aspergillus fumigatus after 24 hr by broth dilution method
Trichophyton longifusum = assay: Antimicrobial activity against Trichophyton longifusum ATCC 22397 after 24 hr by broth dilution method; conditions: ATCC 22397, 24 h
Klebsiella pneumoniae = assay: Antimicrobial activity against Klebsiella pneumoniae ATCC 13883 after 24 hr by broth dilution method; conditions: ATCC 13883, 24 h

Measured: MIC

O=C1Nc2ccc(Cl)cc2/C1=N/N1C(=O)CSC1c1ccc(Cl)cc1 (stereo not given)
18.8 µg/mL: Proteus mirabilis | Micrococcus luteus | [1] | Staphylococcus aureus | Klebsiella pneumoniae
4.68 µg/mL: Aspergillus niger | Aspergillus flavus | Microsporum canis | Candida albicans | Alternaria alternata | Aspergillus fumigatus | Trichophyton longifusum
37.5 µg/mL: Proteus vulgaris | Bacillus spizizenii
9.37 µg/mL: all other assays above

O=C1Nc2ccc(Cl)cc2/C1=N/N1C(=O)C(Cl)C1c1ccc([N+](=O)[O-])cc1 (stereo not given)
18.8 µg/mL: Staphylococcus hominis | [1] | Escherichia coli | Staphylococcus aureus
4.68 µg/mL: Aspergillus niger | Aspergillus flavus | Microsporum canis | Candida albicans | Alternaria alternata
9.37 µg/mL: all other assays above

O=C1Nc2ccc(Cl)cc2/C1=N/N1C(=O)CSC1c1ccco1 (stereo not given)
18.8 µg/mL: Candida albicans | Rhizoctonia solani | Aspergillus fumigatus | Trichophyton longifusum
75 µg/mL: Pseudomonas aeruginosa | Bacillus cereus | Proteus mirabilis | Micrococcus luteus | [1] | Proteus vulgaris | Escherichia coli | Staphylococcus aureus | Klebsiella pneumoniae
37.5 µg/mL: all other assays above

O=C1Nc2ccc(Cl)cc2/C1=N/N1C(=O)C(Cl)C1c1ccc(Cl)cc1 (stereo not given)
4.68 µg/mL: Aspergillus niger | Fusarium solani | Aspergillus awamori | Candida albicans | Trichoderma viride | Aspergillus fumigatus | Trichophyton longifusum
18.8 µg/mL: Pseudomonas aeruginosa | Bacillus cereus | Proteus mirabilis | Micrococcus luteus | [1] | Escherichia coli | Staphylococcus aureus
9.37 µg/mL: all other assays above

O=C1Nc2ccc(Cl)cc2/C1=N/N1C(=O)CSC1c1ccc(O)cc1 (stereo not given)
4.68 µg/mL: Aspergillus niger | Fusarium solani | Aspergillus awamori | Candida albicans | Trichoderma viride | Aspergillus fumigatus | Trichophyton longifusum
18.8 µg/mL: Bacillus cereus | Proteus mirabilis | Micrococcus luteus | Bacillus spizizenii | Escherichia coli | Staphylococcus aureus
9.37 µg/mL: all other assays above

From ChEMBL document CHEMBL3046063, “Synthesis and antimicrobial activity of 5-chloroindoline-2,3-dione derivatives” (2012)
